{"source": "patent US8802240B2", "about": "“Uses of formulations of thyroid hormone analogs and nanoparticulate forms thereof to increase chemosensitivity and radiosensitivity in tumor or cancer cells” (Nanopharmaceuticals LLC, priority 2011, dated 2014)", "key": {"[1]": {"system": "U87MG human glioblastoma cells", "experiment": "U87MG clonogenic survival after 250 kVp single dose x-irradiation", "format": "cell-based", "procedure": "To irradiate culture flasks, a Philips 250 kVp x-ray machine (Philips Corp., Fall River, Mass.) operated at 250 kVp and 15 mA with added filtration of a 0.4 mm Thoreaus filter was used. The target to source distance was 30 cm. Dose rates were measured using an R-meter (Victoreen Co., Cleveland, Ohio), and converted to absorbed (Gy) doses using appropriate temperature, pressure, and R to Gy conversion factors. The dose rate was approximately 1 Gy/min. Flasks were irradiated after being taken from a 37° C. environment and moved to the x-ray source. Movement at ambient temperature took approximately 1-2 min. Cells were next placed on ice and allowed to cool for 5 min. Lastly, flasks were placed in the Philips irradiator on top of a 2 mm thickness of Lucite which was on top of a layer of crushed ice.\nThe maximum time needed for irradiation of the single dose survival curve was approximately 8 min.\nFor SHMT analysis, data lying at or below a fractional survival (F×S) value of 0.368 were fit using a linear regression analysis of the log survival data versus linear dose. From this fit the extrapolation number (n), the quasi-threshold dose (Dq, Gy) and the inverse of the inactivation slope (Do, Gy) were derived.\nFor LQ analyses, survival data lying between the fractional survivals of 1.00 and 0.05 were used. The log survival data were transformed to a linear form using the relationship (−ln F×S/D) and plotted against D. A linear regression analysis was performed to yield the LQ equation along with the 95% confidence limits on the y-intercept (alpha) and the slope (beta) using a t-table with the appropriate (N−1) degrees of freedom. (See Goldstein A. Biostatistics, Academic Press, 1995.)"}, "[2]": {"system": "GL261 murine brain tumor cells", "experiment": "GL261 clonogenic survival after single doses of 250 kVp x-rays", "format": "cell-based", "procedure": "To irradiate 25 cm^2 flasks, an x-ray machine was used and (Philips 250 kVp Therapeutic X-ray Machine, Einhoven, […]) operated at 250 kVp and 15 mA with added filtration of 0.4 mm Thoreaus filter. The target to source distance was approximately 30 cm. Dose rates were measured using an R-meter (Victoreen R-meter, Cleveland, Ohio), and converted to absorbed (Gy) doses using appropriate temperature, pressure, and R to Gy conversion factors. The dose rate was 1 Gy per min. Flasks were irradiated at ambient temperature.\nFor […] analyses, survival data lying at or below 36.8% survival were analyzed by using the log fractional survival (log F×S) versus dose (D). Data were fit using linear regression analysis (SigmaPlot, V. 10, Systat Corp., Point Richmond, Calif.) to obtain the Y-intercept (or n, the extrapolation number) and the slope (1/D0), and their 95% confidence limits. (See Goldstein, A. In: Biostatistics, New York, The MacMillan Co., 1964, p. 140-146). The D0 value (Gy) is defined as the inverse of the slope, and the corrected Dq value (Gy) was then defined using the relationship: Dq(Gy)=ln n×D0(Gy) The 95% confidence limits on Dq were defined using error propagation. (See Chase, et al., In: Principles of Radioisotope Methodology. Minneapolis, Minn. Burgess Publ. Co., 1962, p. 68, 87-90). Statistics: LQ Analysis\nFor LQ analyses, data lying between a fractional survival of 1.00 and 0.05 were used. The fractional survival data at each dose were transformed using the relationship (−ln F×S/D) and plotted against dose (D). A regression analysis was performed to yield the LQ equation along with their 95% confidence limit values using a t-table with the appropriate (N−1) degrees of freedom. (See Goldstein, A. In: Biostatistics, New York, The MacMillan Co., 1964, p. 140-146).\nTo determine the Tetrac modification factor (TMF), the survival at 2 Gy obtained for control cells was divided by the survival at 2 Gy for Tetrac treated cells. The 95% confidence limits on the ratio were determined using error propagation techniques. (See Chase, et al. In: Principles of Radioisotope Methodology, Minneapolis, Minn., Burgress Publ. Co., 1962, p. 68, 87-90)."}, "[3]": {"system": "GL261 cells", "experiment": "GL261 potentially lethal damage repair (PLDR)", "format": "cell-based, murine", "procedure": "PLDR was also measured using the 10% survival level in both control and Tetrac treated-cells, and was also done for both exponentially growing and plateau phase cells. The total 10% survival dose was given, and then cells were placed back into the 37° C. incubator for various periods of time. At 0, 0.5, 1.0, 1.5, 2.0, 3.0, 4.0, 6.0, 8.0, and 10.0 hours, flasks were removed, and processed for survival assessment.\nTo investigate the effects of Tetrac on SLDR and PLDR, cells were chosen that had been given a one-hour treatment with Tetrac at two different times, i.e., at 70 and 270 hours post-seeding)."}, "[4]": {"system": "GL261 cells", "experiment": "GL261 apoptosis and necrosis with or without 5 Gy x-rays", "format": "cell-based, murine", "details": "Tetrac 2 μM, T-NP 0.2 μM", "procedure": "Apoptotic cells were identified using TUNEL staining (Terminal deoxynucleotidyl transferase dUTP nick end labeling (TUNEL)) (staining kit obtained from Oncor, Gaithersberg, Md.; ApoTag) (See Gavrieli et al., J. Cell. Biol. 1992. 119:493-501). The staining procedures were carried out as instructed by the manufacturer. Gill's hematoxylin was used as a counterstain to discriminate negative cells (purple) from positive cells (brown). Negative controls were performed by omitting the terminal deoxynucleotidyl transferase enzyme. Positive controls were performed by incubating cells with Dnase I (3000 U/ml) in 50 mM Tris-HCl, pH 7.5, in 1 mg/ml bovine serum albumin (BSA) for 10 min at ambient temperature.\nTo perform FCM, a total of 10^6 adherent cells were trypsinized and washed once in ambient temperature PBS. They were then fixed in 70% ethanol, and stored overnight, at 4° C. […] Cells were left overnight at 4° C. in the dark and were then analyzed on a Coulter fluorescence-activated cell sorter (Coulter Electronics, Hialeah, Fla.). Cells were excited with a single 488 nm argon laser and the resulting fluorescence was detected using a 585 nm filter. Linear red-orange fluorescence (FL3) data were collected in list format and 10,000 events were collected. The distribution of cells within the cell cycle (sub-G1, G1, S, and G2+M phases) was determined using a Coulter software program."}}}
{"smiles": "O=C(O)Cc1cc(I)c(Oc2cc(I)c(O)c(I)c2)c(I)c1", "note": "[Tetrac, tetraiodothyroacetic acid]", "values": [{"measurement": "increase of α (ratio of the alpha values, sensitization factor)", "setting": "[1]", "result": 3.6, "unit": "fold"}, {"measurement": "isoeffect comparison at 10% survival, ratio", "setting": "[1]", "result": 2.2}, {"measurement": "ratio of relative survival values at 2 Gy", "setting": "[1]", "result": 4.6}, {"measurement": "reduction of the D0 value", "setting": "[1]", "result": 31, "unit": "%"}, {"measurement": "β (LQ)", "setting": "[1]; Tetrac treated cells, control 0.016 (±0.002)", "result": "0.076 (±0.006)"}, {"measurement": "n (SHMT)", "setting": "[1]; Tetrac treated cells, control 2.97 (2.41-3.21)", "result": "1.01 (0.45-2.3)"}, {"measurement": "sensitization factor, average of 3 comparisons", "setting": "[1]; range of 2.2 to 4.6", "result": 3.5}, {"measurement": "sensitization of oxic and hypoxic cells (in words)", "setting": "[2]; 2 μM, graded doses of 250 kVp x-rays", "result": "sensitize both oxic and hypoxic cells equally"}, {"measurement": "SF2 (fractional survival at 2 Gy)", "setting": "[2]; exponential phase with Tetrac, control 32.7", "result": "14.2 (10.8-18.8) %"}, {"measurement": "increase of the D0 value after addition of Tetrac", "setting": "[2]; exponentially growing cells", "result": 15, "unit": "%"}, {"measurement": "reduction of the Dq value after addition of Tetrac", "setting": "[2]; exponentially growing cells", "result": 100, "unit": "%"}, {"measurement": "reduction of the extrapolation number n after addition of Tetrac", "setting": "[2]; exponentially growing cells", "result": 93, "unit": "%"}, {"measurement": "reduction of n after addition of Tetrac", "setting": "[2]; plateau phase cells", "result": 93, "unit": "%"}, {"measurement": "reduction of the D0 after addition of Tetrac", "setting": "[2]; plateau phase cells", "result": 6, "unit": "%"}, {"measurement": "reduction of the Dq after addition of Tetrac", "setting": "[2]; plateau phase cells", "result": 100, "unit": "%"}, {"measurement": "SF2 (fractional survival at 2 Gy)", "setting": "[2]; unfed plateau phase with Tetrac, control 20.6", "result": 7.6, "unit": "%"}, {"measurement": "inhibition of PLDR by a factor of", "setting": "[3]; exponential cells", "result": 1.9}, {"measurement": "decrease of PLDR expression by a factor of", "setting": "[3]; plateau phase cells", "result": 3.4}, {"measurement": "effect on necrosis, necrotic percentage at 120 hours (in words)", "setting": "[4]", "result": "essentially additive"}, {"measurement": "effect plus 5 Gy of x-rays on apoptosis (in words)", "setting": "[4]", "result": "supra-additive"}]}
